In the oligonucleotide strings, read from the 5' end, every base follows the letter of its sugar. An asterisk marks phosphorothioate; unmarked linkages are phosphodiester. Other units and linkages are bracketed, terminal groups are in braces. A string of capitals states the bases alone. e = 2'-O-(2-methoxyethyl) (MOE); [5mC] = 5-methylcytosine; d = 2'-deoxy (DNA)
System: human Factor XI mRNA
Experiment: Antisense inhibition in HepG2 cells by microwalk gapmers, 75 nM, lipofectin (Example 3)
Assay type: cell-based
Conditions: for % inhibition of human Factor XI mRNA levels: HepG2 cells, 75 nM
Procedure: These gapmers were designed by creating gapmers shifted slightly upstream and downstream (i.e. “microwalk”) of the original gapmers from Table 3. Gapmers were also created with various motifs, e.g. 5-10-5 MOE, 3-14-3 MOE, and 2-13-5 MOE. These gapmers were tested in vitro. Cultured HepG2 cells at a density of 10,000 cells per well were transfected using lipofectin reagent with 75 nM antisense oligonucleotide. After a treatment period of approximately 24 hours, RNA was isolated from the cells and Factor XI mRNA levels were measured by quantitative real-time PCR. Factor XI mRNA levels were adjusted according to total RNA content, as measured by RIBOGREEN®. Results are presented as percent inhibition of Factor XI, relative to untreated control cells.
The chimeric antisense oligonucleotides in Table 4 were designed as 5-10-5 MOE, 3-14-3 MOE, and 2-13-5 MOE gapmers. The first listed gapmers in Table 4 are the original gapmers (see Table 3) from which the remaining gapmers were designed via microwalk and are designated by an asterisk. The 5-10-5 gapmers are 20 nucleotides in length, wherein the central gap segment is comprised of 10 2′-deoxynucleotides and is flanked on both sides (in the 5′ and 3′ directions) by wings comprising 5 nucleotides each. The 3-14-3 gapmers are 20 nucleotides in length, wherein the central gap segment is comprised of 14 2′-deoxynucleotides and is flanked on both sides (in the 5′ and 3′ directions) by wings comprising 3 nucleotides each. The 2-13-5 gapmers are 20 nucleotides in length, wherein the central gap segment is comprised of 13 2′-deoxynucleotides. The central gap is flanked on the 5′ end with a wing comprising 2 nucleotides and on the 3′ end with a wing comprising 5 nucleotides. For each of the motifs (5-10-5, 3-14-3, and 2-13-5), each nucleotide in the 5′ wing segment and each nucleotide in the 3′ wing segment has a 2′-MOE modification. The internucleoside linkages throughout each gapmer are phosphorothioate (P═S) linkages. All cytidine residues throughout each gapmer are 5-methylcytidines. “Target start site” indicates the 5′-most nucleotide to which the gapmer is targeted. “Target stop site” indicates the 3′-most nucleotide to which the gapmer is targeted. Each gapmer listed in Table 4 is targeted to SEQ ID NO: 1 (GENBANK Accession No. NM_000128.3).

[1] = oligonucleotides targeted to nucleobases 1062 to 1091 of SEQ ID NO: 1
[2] = oligonucleotides targeted to nucleobases 738 to 762 of SEQ ID NO: 1
[3] = oligonucleotides targeted to nucleobases 1018 to 1042 of SEQ ID NO: 1
[4] = oligonucleotides targeted to nucleobases 1275 to 1318 of SEQ ID NO: 1

## 416844 (antisense e[5mC]*eT*eT*eT*eG*dA*dG*dA*dT*dT*d[5mC]*dT*dT*dT*dG*eG*eG*e[5mC]*e[5mC]*eA) [compound 416844]
[1]
  % inhibition of human Factor XI mRNA levels: 90%

## 416845 (antisense eT*e[5mC]*eT*eT*eT*dG*dA*dG*dA*dT*dT*d[5mC]*dT*dT*dT*eG*eG*eG*e[5mC]*e[5mC]) [compound 416845]
[1]
  % inhibition of human Factor XI mRNA levels: 86%

## 416846 (antisense eT*eT*e[5mC]*eT*eT*dT*dG*dA*dG*dA*dT*dT*d[5mC]*dT*dT*eT*eG*eG*eG*e[5mC]) [compound 416846]
[1]
  % inhibition of human Factor XI mRNA levels: 72%

## 416847 (antisense eT*eT*eT*e[5mC]*eT*dT*dT*dG*dA*dG*dA*dT*dT*d[5mC]*dT*eT*eT*eG*eG*eG) [compound 416847]
[1]
  % inhibition of human Factor XI mRNA levels: 50%

## 416894 (antisense eA*eT*eG*d[5mC]*d[5mC]*d[5mC]*dT*dT*d[5mC]*dA*dT*dG*dT*d[5mC]*dT*dA*dG*eG*eT*e[5mC]) [compound 416894]
HepG2, 75 nM, approximately 24 hours, nucleobases 656 to 704 of SEQ ID NO: 1
  % inhibition: 84%

## 416898 (antisense e[5mC]*e[5mC]*eG*dT*dG*d[5mC]*dA*dT*d[5mC]*dT*dT*dT*d[5mC]*dT*dT*dG*dG*e[5mC]*eA*eT) [compound 416898]
[2]
  % inhibition of human Factor XI mRNA levels: 88%

## 416899 (antisense eT*e[5mC]*e[5mC]*dG*dT*dG*d[5mC]*dA*dT*d[5mC]*dT*dT*dT*d[5mC]*dT*dT*dG*eG*e[5mC]*eA) [compound 416899]
[2]
  % inhibition of human Factor XI mRNA levels: 86%

## 416900 (antisense eA*eT*e[5mC]*d[5mC]*dG*dT*dG*d[5mC]*dA*dT*d[5mC]*dT*dT*dT*d[5mC]*dT*dT*eG*eG*e[5mC]) [compound 416900]
[2]
  % inhibition of human Factor XI mRNA levels: 90%

## 416901 (antisense e[5mC]*eA*eT*d[5mC]*d[5mC]*dG*dT*dG*d[5mC]*dA*dT*d[5mC]*dT*dT*dT*d[5mC]*dT*eT*eG*eG) [compound 416901]
[2]
  % inhibition of human Factor XI mRNA levels: 65%

## 416902 (antisense eT*e[5mC]*eA*dT*d[5mC]*d[5mC]*dG*dT*dG*d[5mC]*dA*dT*d[5mC]*dT*dT*dT*d[5mC]*eT*eT*eG) [compound 416902]
[2]
  % inhibition of human Factor XI mRNA levels: 46%

## 416903 (antisense eG*eT*e[5mC]*dA*dT*d[5mC]*d[5mC]*dG*dT*dG*d[5mC]*dA*dT*d[5mC]*dT*dT*dT*e[5mC]*eT*eT) [compound 416903]
[2]
  % inhibition of human Factor XI mRNA levels: 88%

## 416904 (antisense e[5mC]*e[5mC]*eG*dG*dG*dA*dT*dG*dA*dT*dG*dA*dG*dT*dG*d[5mC]*dA*eG*eA*eT) [compound 416904]
[3]
  % inhibition of human Factor XI mRNA levels: 90%

## 416905 (antisense eA*e[5mC]*e[5mC]*dG*dG*dG*dA*dT*dG*dA*dT*dG*dA*dG*dT*dG*d[5mC]*eA*eG*eA) [compound 416905]
[3]
  % inhibition of human Factor XI mRNA levels: 85%

## 416906 (antisense eA*eA*e[5mC]*d[5mC]*dG*dG*dG*dA*dT*dG*dA*dT*dG*dA*dG*dT*dG*e[5mC]*eA*eG) [compound 416906]
[3]
  % inhibition of human Factor XI mRNA levels: 88%

## 416907 (antisense e[5mC]*eA*eA*d[5mC]*d[5mC]*dG*dG*dG*dA*dT*dG*dA*dT*dG*dA*dG*dT*eG*e[5mC]*eA) [compound 416907]
[3]
  % inhibition of human Factor XI mRNA levels: 90%

## 416909 (antisense eA*eT*eT*d[5mC]*dT*dT*dT*dG*dG*dG*d[5mC]*d[5mC]*dA*dT*dT*d[5mC]*d[5mC]*eT*eG*eG) [compound 416909]
[1]
  % inhibition of human Factor XI mRNA levels: 78%

## 416910 (antisense eG*eA*eT*dT*d[5mC]*dT*dT*dT*dG*dG*dG*d[5mC]*d[5mC]*dA*dT*dT*d[5mC]*e[5mC]*eT*eG) [compound 416910]
[1]
  % inhibition of human Factor XI mRNA levels: 90%

## 416911 (antisense eA*eG*eA*dT*dT*d[5mC]*dT*dT*dT*dG*dG*dG*d[5mC]*d[5mC]*dA*dT*dT*e[5mC]*e[5mC]*eT) [compound 416911]
[1]
  % inhibition of human Factor XI mRNA levels: 90%

## 416912 (antisense eG*eA*eG*dA*dT*dT*d[5mC]*dT*dT*dT*dG*dG*dG*d[5mC]*d[5mC]*dA*dT*eT*e[5mC]*e[5mC]) [compound 416912]
[1]
  % inhibition of human Factor XI mRNA levels: 92%

## 416913 (antisense eT*eG*eA*dG*dA*dT*dT*d[5mC]*dT*dT*dT*dG*dG*dG*d[5mC]*d[5mC]*dA*eT*eT*e[5mC]) [compound 416913]
[1]
  % inhibition of human Factor XI mRNA levels: 93%

## 416914 (antisense eT*eT*eG*dA*dG*dA*dT*dT*d[5mC]*dT*dT*dT*dG*dG*dG*d[5mC]*d[5mC]*eA*eT*eT) [compound 416914]
[1]
  % inhibition of human Factor XI mRNA levels: 87%

## 416915 (antisense eT*eT*eT*dG*dA*dG*dA*dT*dT*d[5mC]*dT*dT*dT*dG*dG*dG*d[5mC]*e[5mC]*eA*eT) [compound 416915]
[1]
  % inhibition of human Factor XI mRNA levels: 79%

## 416916 (antisense e[5mC]*eT*eT*dT*dG*dA*dG*dA*dT*dT*d[5mC]*dT*dT*dT*dG*dG*dG*e[5mC]*e[5mC]*eA) [compound 416916]
[1]
  % inhibition of human Factor XI mRNA levels: 91%

## 416917 (antisense eT*e[5mC]*eT*dT*dT*dG*dA*dG*dA*dT*dT*d[5mC]*dT*dT*dT*dG*dG*eG*e[5mC]*e[5mC]) [compound 416917]
[1]
  % inhibition of human Factor XI mRNA levels: 92%

## 416918 (antisense eT*eT*e[5mC]*dT*dT*dT*dG*dA*dG*dA*dT*dT*d[5mC]*dT*dT*dT*dG*eG*eG*e[5mC]) [compound 416918]
[1]
  % inhibition of human Factor XI mRNA levels: 63%

## 416919 (antisense eT*eT*eT*d[5mC]*dT*dT*dT*dG*dA*dG*dA*dT*dT*d[5mC]*dT*dT*dT*eG*eG*eG) [compound 416919]
[1]
  % inhibition of human Factor XI mRNA levels: 27%

## 416920 (antisense eA*e[5mC]*eA*dG*dT*dT*dT*d[5mC]*dT*dG*dG*d[5mC]*dA*dG*dG*d[5mC]*d[5mC]*eT*e[5mC]*eG) [compound 416920]
[4]
  % inhibition of human Factor XI mRNA levels: 88%

## 416921 (antisense e[5mC]*eA*e[5mC]*dA*dG*dT*dT*dT*d[5mC]*dT*dG*dG*d[5mC]*dA*dG*dG*d[5mC]*e[5mC]*eT*e[5mC]) [compound 416921]
[4]
  % inhibition of human Factor XI mRNA levels: 88%

## 416927 (antisense eT*eT*eG*dG*dT*dG*d[5mC]*dA*d[5mC]*dA*dG*dT*dT*dT*d[5mC]*dT*dG*eG*e[5mC]*eA) [compound 416927]
[4]
  % inhibition of human Factor XI mRNA levels: 87%

## 416928 (antisense eA*eT*eT*dG*dG*dT*dG*d[5mC]*dA*d[5mC]*dA*dG*dT*dT*dT*d[5mC]*dT*eG*eG*e[5mC]) [compound 416928]
[4]
  % inhibition of human Factor XI mRNA levels: 91%

## 416929 (antisense e[5mC]*eA*eT*dT*dG*dG*dT*dG*d[5mC]*dA*d[5mC]*dA*dG*dT*dT*dT*d[5mC]*eT*eG*eG) [compound 416929]
[4]
  % inhibition of human Factor XI mRNA levels: 83%

## 416930 (antisense eG*e[5mC]*eA*dT*dT*dG*dG*dT*dG*d[5mC]*dA*d[5mC]*dA*dG*dT*dT*dT*e[5mC]*eT*eG) [compound 416930]
[4]
  % inhibition of human Factor XI mRNA levels: 87%

## 416932 (antisense e[5mC]*eG*eG*d[5mC]*dA*dT*dT*dG*dG*dT*dG*d[5mC]*dA*d[5mC]*dA*dG*dT*eT*eT*e[5mC]) [compound 416932]
[4]
  % inhibition of human Factor XI mRNA levels: 92%

## 416933 (antisense eA*e[5mC]*eG*dG*d[5mC]*dA*dT*dT*dG*dG*dT*dG*d[5mC]*dA*d[5mC]*dA*dG*eT*eT*eT) [compound 416933]
[4]
  % inhibition of human Factor XI mRNA levels: 92%

## 416934 (antisense eG*eA*e[5mC]*dG*dG*d[5mC]*dA*dT*dT*dG*dG*dT*dG*d[5mC]*dA*d[5mC]*dA*eG*eT*eT) [compound 416934]
[4]
  % inhibition of human Factor XI mRNA levels: 90%

## 416935 (antisense eG*eG*eA*d[5mC]*dG*dG*d[5mC]*dA*dT*dT*dG*dG*dT*dG*d[5mC]*dA*d[5mC]*eA*eG*eT) [compound 416935]
[4]
  % inhibition of human Factor XI mRNA levels: 92%

## 416936 (antisense e[5mC]*eG*eG*dA*d[5mC]*dG*dG*d[5mC]*dA*dT*dT*dG*dG*dT*dG*d[5mC]*dA*e[5mC]*eA*eG) [compound 416936]
[4]
  % inhibition of human Factor XI mRNA levels: 89%

## 416937 (antisense eG*e[5mC]*eG*dG*dA*d[5mC]*dG*dG*d[5mC]*dA*dT*dT*dG*dG*dT*dG*d[5mC]*eA*e[5mC]*eA) [compound 416937]
[4]
  % inhibition of human Factor XI mRNA levels: 93%

## 416938 (antisense eA*eG*e[5mC]*dG*dG*dA*d[5mC]*dG*dG*d[5mC]*dA*dT*dT*dG*dG*dT*dG*e[5mC]*eA*e[5mC]) [compound 416938]
[4]
  % inhibition of human Factor XI mRNA levels: 90%
